From PMC5580926 (Antiviral therapy, 2016)
Like-named read-outs stand apart in the source and are kept apart here.

Tests used:
[1] = ATPlite cytotoxicity assay under Con1b replicon efficacy assay conditions; format: cell-based; conditions: human
in vitro = format: cell-based; conditions: human
Con1b replicon = Con1b replicon efficacy assay; format: cell-based, HCV; conditions: Hepatitis C virus, read-out: EC50, Con1b replicon
HCVcc-Luc (2a) = experiment: microbe, parasite or virus in culture; format: cell-based, HCV; conditions: read-out: EC50, HCVcc-Luc (2a)

| Structure (SMILES) | CC50 ([1]; Con1b replicon cell line) [nM] | CC50 (in vitro) [nM] | EC50 (Con1b replicon) [nM] | EC50 (HCVcc-Luc (2a); Hepatitis C virus) [nM] | CC50 [1] [nM] | EC50 (HCVcc-Luc (2a); single agent, mean of ≥3 independent tests ±SEM) [nM] |
| --- | --- | --- | --- | --- | --- | --- |
| C[C@@]1(O)[C@H](O)[C@@H](CO)O[C@H]1n1ccc(N)nc1=O [2′-C-methylcytidine] | > 100000 | > 100000 | 1610 ± 70 | 1400 ± 400 | – | – |
| CC(C)OC(=O)[C@H](C)N[P@](=O)(OC[C@H]1O[C@@H](n2ccc(=O)[nH]c2=O)[C@](C)(F)[C@@H]1O)Oc1ccccc1 [Sofosbuvir, sofosbuvir] | – | > 100000 | 400 ± 100 | 60 ± 2 | > 100000 | – |
| CC(C)(C)NC(=O)N[C@H](C(=O)N1C[C@H]2[C@@H]([C@H]1C(=O)NC(CC1CCC1)C(=O)C(N)=O)C2(C)C)C(C)(C)C (some centres unmarked) [Boceprevir, boceprevir] | – | > 100000 | 620 ± 10 | – | > 100000 | – |
| COC(=O)N[C@H](C(=O)N1CCC[C@H]1c1nc(-c2ccc(-c3ccc(-c4c[nH]c([C@@H]5CCCN5C(=O)[C@@H](NC(=O)OC)C(C)C)n4)cc3)cc2)c[nH]1)C(C)C [Daclatasvir, daclatasvir] | 22000 ± 1000 | 45000 ± 1000 | 0.04 ± 0.02 | 0.04 ± 0.02 | – | – |
| CN1CCN([C@@H](c2ccccc2)c2ccc(Cl)cc2)CC1 [(S)-CCZ, (S)-chlorcyclizine] | – | – | – | – | – | 24 ± 9 |
| CCC[C@H](NC(=O)[C@@H]1[C@H]2CCC[C@H]2CN1C(=O)[C@@H](NC(=O)[C@@H](NC(=O)c1cnccn1)C1CCCCC1)C(C)(C)C)C(=O)C(=O)NC1CC1 [Telaprevir, telaprevir] | 97800 ± 900 | > 100000 | 550 ± 50 | 200 ± 40 | – | – |
